Test results reported in patent US5232933A, “Method for treatment of neurodegenerative diseases” (R. J. Reynolds Tobacco Company, priority 1992, dated 1993).

Biological target: high affinity nicotinic receptors
Assay: Inhibition of L-[3H]nicotine binding to mouse brain membranes
Design: species or system Mice (DBA strain)
Details: 2 hr incubation at 4° C., Ki calculated from IC50 by method of Cheng
Description: Mice (DBA strain) were maintained on a 12 hour light/dark cycle and were allowed free access to water and food supplied by Wayne Lab Blox, Madison, Wis. Animals used in the present studies were 60 to 90 days of age and weighed 20 to 25 g. Brain membrane preparations were obtained from pooled brain tissue of both males and females.
Mice were killed by cervical dislocation. Brains were removed and placed on an ice-cold platform. […] Protein was determined by the method of Lowry, et al., J. Biol. Chem., Vol. 193, pp. 265-275 (1951), using bovine serum albumin as the standard.
The binding of L-[^3 H]nicotine was measured using a modification of the method of Romano, et al., Science, Vol 210 pp. 647-650 (1980) as described previously by Marks, et al., Mol. Pharmacol., Vol. 30, pp. 427-436 (1986). The binding of L-[^3 H]nicotine was measured using a 2 hr. incubation at 4° C. […] Nonspecific binding was determined by inclusion of 10 μM nonradioactive nicotine in the incubations. The inhibition of L-[^3 H]nicotine binding by test compounds was determined by including one of eight different concentrations of the test compound in the incubation. […] Inhibition constant (Ki values) were calculated from the IC50 values using the method of Cheng, et al., Biochem. Pharmacol., Vol. 22, pp. 3099-3108 (1973). […]

## c1ccc(C2CCCN2)nc1 (racemic) [alpha-nornicotine]
  Ki: 5.7 µM
